“And” between values parts separate entries of the source, which are not always exact repeats. Identical values can stand only once. Like-named read-outs stand apart in the source and are kept apart here. Each block holds one molecule with its values, some of them ahead of it.
Experiments:
WT-ThaPK = biological target: T1, WT-ThaPK (Thermoplasma acidophilum, UniProt P32044); assay: LDH/NADH coupled assay, dead-end inhibition, global fit; format: biochemical
T1 construct: gene Ta0896; full length (1635 bp gene, 544 residues), N-terminal His6 tag and thrombin site (20 residues) kept, pET15b, E. coli BL21(DE3) Codon Plus-RIL
From the text: LDH/NADH coupled assay, dead-end inhibition, global fit on WT-ThaPK

[1] = biological target: ECTS truncated-ThaPK (Thermoplasma acidophilum pyruvate kinase lacking the extra C-terminal sequence) (Thermoplasma acidophilum) (UniProt P32044); assay: native gel or EMSA; 1D Blue Native PAGE, linear 4-18% acrylamide gradient, 4 °C, 50 µg protein per well; bands excised and resolved by 2D SDS-PAGE; masses from regression on standards, triplicate gels
[2] = biological target: the molecule itself; assay: SEC; Superdex 200 (10/300), 50 mM HEPES pH 7.5, 150 mM NaCl, 500 µg of enzyme loaded, calibrated with BIORAD gel filtration standards

Ki (WT-ThaPK; read-out: Ki (Oxalate)): 0.044 ± 0.001 mM
Molecule: O=C(O)C(=O)O [oxalate]

stoichiometry N [1]: 2 and 3
Molecule: ECTS truncated-ThaPK (Thermoplasma acidophilum pyruvate kinase lacking the extra C-terminal sequence) (from UniProt P32044 1-450) (domain or fragment)

Ki (WT-ThaPK; read-out: Ki (AMP)): 3.3 ± 0.3 mM
Molecule: Nc1ncnc2c1ncn2[C@@H]1O[C@H](COP(=O)(O)O)[C@@H](O)[C@H]1O [AMP]

B1: Thermoplasma acidophilum pyruvate kinase, wild type (WT-ThaPK) (enzyme, UniProt P32044 1-544, looked up)
chain: MKTKIVATIGPASSSPEIMKQMIDNGLSLVRINSAHADIKDVSKITQMVRSINRDVGIMIDLKGPELRTGEFAGGTLKISSGKDYVMGKDIVLNNMNVLSAVQVGDRILMSDGEVSFEVESTDPFTIRALNDGVLRDRSRVNIPGRFIELGTITDRDRAFIREGIADGVDFFALSFVQKSENVDSLRDFVIDSGGDQYIISKIETKSGLDNIEEIVKSSDGIMVARGDLGVELPLKEVVLAQKHIIKTAHEDGDFTIVATQVLESMVNNSSPTRAEISDITNAIIDNADALMLSEESAIGKYPVQAVRTLKEVSDYVEDKVSFDSSYYFKGNTIAYSVARAAKILSDDIKSDGIVALTHTGSTVRMISSLRPKAMVYAATVSESLARKLNIYFGVLPLHMEGNAEDLSFSEIMEYIVRSGRFADGSKLVMTSGDPYFTFGGTNDVKVAVVGKFIGRGYSFGDSLSGTATYGTKGDILMSEDGRIPGTDFRAFIFTSDIKPSLMSSLKGKTVVTKARLVRQIKEGERIYIDGNTGIILMASPDQK
notes: pyruvate kinase of Thermoplasma acidophilum; synthetic gene of 1635 bp cloned NdeI/BamHI in pET15b; last residue K544; monomer 59,147.48 Da plus 20 extra residues (His6 tag and thrombin site, 2193.26 Da) that thrombin could not cleave; The 20 additional N-terminal residues from pET15b (His6 tag and thrombin cleavage site) stayed on the protein in all experiments; also called wild-type enzyme; …
stoichiometry N [2]: 4
